Measurements reported in patent US6043265A, “Isoxazolyl endothelin antagonists” (Bristol-Myers Squibb Co., priority 1998, dated 2000).
Like-named read-outs stand apart in the source and are kept apart here.

How the values were obtained:
[1] = test system: big ET-1 pressor response; test: Pressor testing (i): inhibition of big ET-1 pressor response after intravenous dosing; assay type: in vivo; settings: Rattus norvegicus, 5 min, read-out: dose causing 50% inhibition of the big ET-1 pressor response (ED50), human big ET-1 1 nmol/kg i.v. before and 5 minutes after compound, conscious normotensive Sprague-Dawley rats
Method: (i) Intravenous injection of big ET-1 into conscious, normotensive rats produces a transient increase in mean arterial pressure which can be blunted by an ETA receptor antagonist.
A bolus injection of human big ET-1 (1 nmol/kg, intravenously; vehicle: 1% Tween 80 in 5% NaHCO3) was administered to Sprague-Dawley rats before and 5 minutes after intravenous injection of an amount of the title compound (0.01 μmol/kg (n=10), 0.03 μmol/kg (n=10), and 0.1 μmol/kg (n=3)). Peak pressor responses were compared to determine the amount of inhibition caused by the title compound.

[2] = Oral bioavailability in fasted male rats (intravenous and oral dosing); assay type: in vivo; settings: for AUC(0-inf) / bioavailability: rat, plasma; for AUC(0-inf): fasted male rats (n=3), read-out: area under the curve AUC.infin.; for bioavailability: from dose-normalized AUC.infin. oral vs intravenous
Method: Fasted male rats (n=3) were given a single dose of the title compound either intravenously (10 μmol/kg as a 10 minute infusion) or orally by gavage (20 μmol/kg). The dosing vehicle was propylene glycol for the intravenous dose and PEG-400 for the oral dose. Following dosing, the average plasma concentration of the title compound was measured over time, and the area under the curve AUC.infin.

[3] = Pre-systemic metabolic stability within the gastrointestinal tract, in vivo (bile duct cannulated rats); settings: rat, po, 29 mg/kg
Method: Bile duct cannulated rats were fasted overnight. The title compound was administered as a solution in 5% sodium bicarbonate (ca. 8 mg/ml, 29 mg/kg) by oral gavage. Gastrointestinal tract homogenate was made in 3 volumes of water and an equal volume of acetonitrile was added.

[4] = test system: big ET-1 pressor response; test: Pressor testing (ii): inhibition of big ET-1 pressor response over time after oral dosing; assay type: in vivo, Sprague-Dawley rats; settings: 3 μmol/kg, human big ET-1 1 nmol/kg i.v., n=3
Excerpt: Peak pressor responses were compared to determine the amount of inhibition caused by the title compound at these time intervals.

in vitro = settings: rat, cecal contents, pH 7.4
Method: Rat cecal contents were quickly placed in cold, degassed potassium phosphate buffer (50 mM, pH 7.4, purged by nitrogen bubbling for at least 30 minutes). Each incubation contained ca. 0.1 g of cecal contents/ml. […] Samples were analyzed with HPLC-UV and LC-MS on a YMC-ODS AQ column (4.6×150 mm, 3μ) eluted with an ammonium acetate/acetonitrile gradient and detected at 270 nm.

Structure (SMILES) | ED50 [1] | dose-normalized AUC.infin. values, intravenous versus oral ([2]; fasted male rats, 10 μmol/kg intravenous vs 20 μmol/kg oral) | AUC(0-inf) ([2]; 10 umol/kg, intravenous, 10 μmol/kg as a 10 minute infusion, propylene glycol vehicle) | bioavailability ([2]; 20 umol/kg, fasted male rats) | AUC(0-inf) ([2]; 20 umol/kg, oral gavage, 20 μmol/kg, PEG-400 vehicle) | metabolites in the gastrointestinal tract [3] | remaining at 9 h [3] | % Inhibition (big ET-1 pressor response) ([4]; 15 minutes after dosing) | % Inhibition (big ET-1 pressor response) ([4]; 105 minutes after dosing) | % Inhibition (big ET-1 pressor response) ([4]; 195 minutes after dosing) | remaining at 1 h, 200 µM (in vitro)
Cc1onc(NS(=O)(=O)c2ccccc2-c2ccc(-c3ncco3)cc2CN(C)C(=O)CC(C)(C)C)c1C [N-[[2'-[[(4,5-dimethyl-3-isoxazolyl)amino]sulfonyl]-4-(2-oxazolyl)[1,1'-biphenyl]-2-yl]methyl]-N,3,3-trimethylbutanamide] | 0.03 µmol/kg | not statistically different | 31.3 ± 2.9 µM·h | ~100% | 72.8 ± 17.3 µM·h | metabolites were not observed | 100% | 57 ± 7% | 65 ± 13% | 74 ± 8% | 100%
Cc1onc(NS(=O)(=O)c2ccccc2-c2ccc(-c3ncco3)cc2CN2CCC(C)(C)C2=O)c1C [N-(4,5-dimethyl-3-isoxazolyl)-2'-[(3,3-dimethyl-2-oxo-1-pyrrolidinyl)methyl]-4'-(2-oxazolyl)[1,1'-biphenyl]-2-sulfonamide] |  |  |  | ~78% |  |  |  |  |  |  | 
